# Read-outs that look alike come from different tables or passages of the source.
# Experiments:
# [1] = molecular target: T1, altered maize DHPS (pZM DHPS-M3, threonine for alanine at position 112) (Zea mays, UniProt P26259, A166T/R367Q); test: Lysine sensitivity of DHPS activity of mutant pZM DHPS-M3; type: biochemical
# T1 construct: the 380 amino acids of the maize cDNA coding region; beta-galactosidase N-terminal residues (5 aa) (N); vector polylinker (18 aa) (N); translated 5' untranslated region of the cDNA (13 aa) (N); made in house; host or cells: E. coli AT997 dapA- (inferred from the repeated mutagenesis and selection protocol)
# T1 sequence (P26259 whole entry A166T/R367Q): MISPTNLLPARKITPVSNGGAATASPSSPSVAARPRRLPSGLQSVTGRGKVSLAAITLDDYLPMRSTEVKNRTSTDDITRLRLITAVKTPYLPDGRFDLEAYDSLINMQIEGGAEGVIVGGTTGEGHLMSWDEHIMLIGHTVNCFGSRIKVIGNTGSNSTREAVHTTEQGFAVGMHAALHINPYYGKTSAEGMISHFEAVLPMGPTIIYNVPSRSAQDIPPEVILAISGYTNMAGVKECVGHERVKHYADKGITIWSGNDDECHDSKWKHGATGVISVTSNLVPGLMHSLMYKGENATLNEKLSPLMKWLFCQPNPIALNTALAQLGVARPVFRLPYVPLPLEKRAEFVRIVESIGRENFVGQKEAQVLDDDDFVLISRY
# Excerpt: (§1) Additional independently derived mutations in maize DHPS were obtained by repeating the mutagenesis and selection protocol in separate experiments. […] Mutant plasmid pZM DHPS-M3 has a nucleotide change at position #496 (ACA instead of GCA); this change causes substitution of threonine for alanine at the same amino acid position (112) as altered in mutant pZM DHPS-M1. Mutant plasmid pZM DHPS-M4 has a nucleotide change at position #484 (AAA instead of GAA); this change causes substitution of lysine for glutamic acid at amino acid position #108.
# [2] = molecular target: T2, DHPS from wildtype, nontransformed E. coli strain DH5A (Escherichia coli, UniProt P0A6L2); test: Lysine inhibition of DHPS from wildtype nontransformed E. coli (FIG. 4); type: biochemical; settings: lysine concentrations up to 1 mM
# T2 construct: DHPS from wildtype, nontransformed E. coli strain DH5A; endogenous in cells; host or cells: E. coli DH5A
# T2 sequence (P0A6L2 whole entry): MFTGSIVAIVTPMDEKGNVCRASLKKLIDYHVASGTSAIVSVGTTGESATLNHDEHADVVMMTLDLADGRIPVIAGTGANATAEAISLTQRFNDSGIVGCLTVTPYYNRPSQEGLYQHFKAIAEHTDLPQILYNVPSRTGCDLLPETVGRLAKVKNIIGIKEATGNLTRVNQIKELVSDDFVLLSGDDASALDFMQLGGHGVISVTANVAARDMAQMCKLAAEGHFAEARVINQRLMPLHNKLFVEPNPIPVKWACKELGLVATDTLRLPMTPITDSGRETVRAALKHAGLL
# [3] = tested on: maize DHPS (cDNA expression product in AT997dapA- transformants); test: DHPS activity in crude lysates of AT997dapA- transformants pZM DHPS1 to pZM DHPS5, with or without lysine; type: biochemical; settings: for % Inhibition: 100 μM lysine
# Experimental: (§2) Crude lysates from wildtype 71-18dapA^+ cells, AT997dapA^- transformed with pUC13 lacking a cDNA insert, and the five complementing transformant cell lines AT997(pZM DHPS1) to AT997(pZM DHPS5) were assayed for DHPS activity. The transformed cells were grown overnight in M9 medium+100 μM DAP, collected by centrifugation at 5000×g for 10 min and resuspended in 1/10 volume of extraction buffer (100 mM TRIS-HCl, pH 8.0, 100 mM NaCl, 100 mM pyruvate). Cells were placed briefly on ice, disrupted by sonication (60 W, 15 s) and debris removed by centrifugation at 15000×g for 15 min. The supernatant was desalted on a G25 Sephadex column equilibrated with 10 mM TRIS-HCl, pH 8.0 and 1 mM EDTA and used for enzyme assays.
# (§3) The DHPS assay buffer (R. M. Wallsgrove et al., Phytochem., 20, 2651 (1981)) contained 100 mM TRIS-HCl, pH 8.0, 10 mM pyruvate, 1.4 mM aspartate semialdehyde neutralized just prior to use, and 100 μl enzyme in a final volume of 250 μl. Tubes were incubated at 37° C. for 30 min and reactions stopped by addition of 1 ml of 0.22M sodium citrate, 0.55M sodium phosphate, pH 5.0 and 0.25 mg/ml-aminobenzaldehyde. The colored reaction product was allowed to form for 3 hr at 37° C. and samples were centrifuged at 10000 g. Activity units (0.001 OD/min) were determined at 520 nm; standard errors of replicate assays were routinely <2% of the mean.
# native Zea mays DHPS [4] = molecular target: T3, native Zea mays DHPS (Zea mays, UniProt P26259); test: Lysine feedback inhibition of native maize DHPS in vitro; type: biochemical; settings: native Zea mays DHPS / native plant DHP synthase, read-out: I50 of feedback inhibition by lysine
# T3 construct: host or cells: maize cells (highly purified DHPS)
# T3 sequence (P26259 55-380): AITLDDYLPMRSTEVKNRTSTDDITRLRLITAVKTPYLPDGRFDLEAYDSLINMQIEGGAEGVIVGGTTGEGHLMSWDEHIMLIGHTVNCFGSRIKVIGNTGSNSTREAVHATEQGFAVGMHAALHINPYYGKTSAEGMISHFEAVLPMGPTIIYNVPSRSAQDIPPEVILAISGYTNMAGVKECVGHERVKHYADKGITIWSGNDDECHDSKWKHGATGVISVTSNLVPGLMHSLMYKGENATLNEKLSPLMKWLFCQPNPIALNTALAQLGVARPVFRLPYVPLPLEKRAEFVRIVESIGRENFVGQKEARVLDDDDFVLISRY
# Excerpt: For example, novel plants resulting from the present method contain extractable lysine levels at least about ten times, and preferably, at least about 50 times, e.g., about 50-250 times higher than plants of the same species which contain only native DHPS.
# This difference in lysine sensitivity was an additional indication that the cDNA inserts were from maize and that restoration of DHPS activity in the E. coli mutant was not caused by reversion of the dapA^- allele or due to an interaction with pUC13 plasmid DNA. In preliminary tests of partially purified DHPS from cell line pZM DHPS5, the [I]0.5 value for lysine was determined to be in the range of 20 to 30 μM.
# [5] = molecular target: T4, altered maize DHPS (pZM DHPS-M1) fusion protein expressed in AT997 E. coli (Zea mays, UniProt P26259, A166V/R367Q); test: Lysine inhibition of partially purified mutant DHPS-M1 fusion protein (FIG. 4); type: biochemical
# T4 construct: made in house; host or cells: E. coli AT997 dapA- (pZM DHPS-M1), heat-treated, desalted extract
# T4 sequence (P26259 whole entry A166V/R367Q, the tested form may be a part): as the sequence (P26259 whole entry A166T/R367Q) above, with T166V counted along it
# Experimental: (§4) AT997 cells (approximately 1 ml packed vol), containing plasmids pZM DHPS5B, pZM DHPS-M1 or pZM DHPS-M2, were extracted by sonication (60 W, 20 s) into 5 ml of ice cold buffer containing (100 mM TRIS-HCl, pH 8.0, 100 mM NaCl, 50 mM pyruvate) and then centrifuged at […] for 10 min. The supernatant was placed in a water bath (60° C.) for 5 min, cooled to 4° C. and centrifuged. The resulting supernatant was desalted on a Sephadex G50 column in 10 mM TRIS-HCl, pH 8.0, and 1 mM EDTA.
# (§5) DHPS activity was determined as described in Example 2 except that the reaction was stopped after 2 min; at longer reaction times, activity was not linear with time. The volume of enzyme was adjusted so that the absorbance at 520 nm increased approximately 0.1 A (=100 activity units) after 2 min for standard control assays. Lysine concentrations were varied from 0.01 mM to 1.0 mM in the presence of constant concentrations of the substrates pyruvate (20 mM) and aspartate semialdehyde (1.4 mM). The average of two or three assays were used to determine enzyme activity values and percent inhibition by lysine.
# [6] = molecular target: T5, altered maize DHPS (pZM DHPS-M2) fusion protein expressed in AT997 E. coli (Zea mays, UniProt P26259); test: Lysine inhibition of partially purified mutant DHPS-M2 fusion protein (FIG. 4); type: biochemical; settings: L-lysine concentrations as high as 1.0 mM
# T5 construct: heat-treated, desalted extract
# T5 sequence (P26259 whole entry, the tested form may be a part): as the sequence (P26259 whole entry A166T/R367Q) above, with T166A, Q367R counted along it
# Experimental: as §4, §5
# native Zea mays DHPS [7] = molecular target: T3, native Zea mays DHPS; settings: highly purified DHPS from maize cells; Frisch et al., Plant Physiol., 96, 444 (1991); read-out: [I]0.5 value for lysine; cited from earlier work
# [8] = tested on: wildtype maize DHPS (pZM DHPS5B) fusion protein expressed in AT997 E. coli; test: Lysine inhibition of partially purified wildtype maize DHPS fusion protein (FIG. 4); type: biochemical
# Experimental: as §4, §5
# [9] = molecular target: T6, Purified DHPS from Black Mexican Sweet maize (Zea mays, UniProt P26259); test: DHPS activity of purified maize DHPS, with or without lysine; type: biochemical
# T6 construct: from tissue; host or cells: Black Mexican Sweet maize suspension cultures (endogenous enzyme, purified more than 4000-fold)
# T6 sequence (P26259 55-380): T3 sequence (P26259 55-380)
# Experimental: as §3
# The putative start of the coding region for maize DHPS was established by comparison of the N-terminus amino acid sequence of SDS-PAGE purified DHPS monomer with the amino acid sequence derived from the nucleotide sequence. DHPS was purified more than 4000-fold with 25% recovery from Black Mexican Sweet maize suspension cultures by the procedure of D. A. Frisch et al., Plant Physiol., 96, 444 (1991). Only one protein band (ca. 130000 Mr) was detected by silver-staining after native polyacrylamide gel electrophoresis (PAGE) and this band corresponded to the position of DHPS activity. […]
# [10] = molecular target: T7, wildtype E. coli DHPS from 71-18dapA+ (Escherichia coli, UniProt P0A6L2); test: DHPS activity in crude lysate of wildtype 71-18dapA+ cells, with or without lysine; type: biochemical
# T7 construct: Crude lysates from wildtype 71-18dapA; endogenous in cells; host or cells: E. coli 71-18 (dapA+), crude desalted lysate
# T7 sequence (P0A6L2 whole entry): as the sequence (P0A6L2 whole entry) above
# Experimental: as §2, §3
# [11] = molecular target: T8, altered maize DHPS (pZM DHPS-M4, lysine for glutamic acid at position 108) (Zea mays, UniProt P26259, E162K/R367Q); test: Lysine sensitivity of DHPS activity of mutant pZM DHPS-M4; type: biochemical
# T8 construct: the 380 amino acids of the maize cDNA coding region; beta-galactosidase N-terminal residues (5 aa) (N); vector polylinker (18 aa) (N); translated 5' untranslated region of the cDNA (13 aa) (N); made in house; host or cells: E. coli AT997 dapA- (inferred from the repeated mutagenesis and selection protocol)
# T8 sequence (P26259 whole entry E162K/R367Q): as the sequence (P26259 whole entry A166T/R367Q) above, with E162K, T166A counted along it
# Excerpt: as §1
compound,measurement,setting,value
"NCCCC[C@H](N)C(=O)O [lysine, L-lysine]",lysine sensitivity of DHPS activity,[1],lysine insensitivity
same,inhibition of DHPS activity by lysine,[2],intermediate level of inhibition
same,"Specific Activity, 100 μM Lysine",[3]; AT997dapA- (pZM DHPS1),24 0.001 OD520 /min per milligram
same,% Inhibition,[3]; AT997dapA- (pZM DHPS1),90%
same,"Specific Activity, 100 μM Lysine",[3]; AT997dapA- (pZM DHPS2),15 0.001 OD520 /min per milligram
same,% Inhibition,[3]; AT997dapA- (pZM DHPS2),91%
same,"Specific Activity, 100 μM Lysine",[3]; AT997dapA- (pZM DHPS3),22 0.001 OD520 /min per milligram
same,% Inhibition,[3]; AT997dapA- (pZM DHPS3),88%
same,"Specific Activity, 100 μM Lysine",[3]; AT997dapA- (pZM DHPS4),42 0.001 OD520 /min per milligram
same,% Inhibition,[3]; AT997dapA- (pZM DHPS4),86%
same,"Specific Activity, 100 μM Lysine",[3]; AT997dapA- (pZM DHPS5),27 0.001 OD520 /min per milligram
same,% Inhibition,[3]; AT997dapA- (pZM DHPS5),90%
same,IC50,native Zea mays DHPS [4],25 µM
same,inhibition of DHPS activity by lysine,"[5]; DHPS expressed from SEQ ID NO. 1 in E. coli transformants, 1000 μM lysine",not inhibited
same,reduction in sensitivity to lysine versus native Zea mays DHPS,[5]; altered Zea mays DHPS of SEQ ID NO. 2,more than 400 times
same,"L-lysine level at which altered DHPS is active, relative to native DHPS","[5]; altered maize DHPS of the invention, in vitro",at least 100 fold
same,inhibition of DHPS activity by L-lysine,"[5]; pZM DHPS-M1, L-lysine concentrations as high as 1.0 mM",not inhibited
same,inhibition of DHPS activity by L-lysine,[6],not inhibited
same,IC50,native Zea mays DHPS [7],23 µM
same,inhibition of wildtype maize DHPS activity,"[8]; 100 μM lysine, E. coli transformants",more than 90%
same,inhibition of DHPS activity by lysine,"[8]; pZM DHPS5B, lysine concentrations as low as 25 μM",significantly inhibited
same,inhibition at 100 µM,[9]; 100 μM lysine,97%
same,"DHPS activity, 100 μM Lysine",[9]; specific activity not determined (footnote b),8 units of DHPS activity
same,"Specific Activity, 100 μM Lysine",[10]; 71-18dapA+ crude lysate,120 0.001 OD520 /min per milligram
same,inhibition at 100 µM,"[10]; 71-18dapA+, 100 μM lysine",8%
same,lysine sensitivity of DHPS activity,[11],lysine insensitivity

# From US5545545A, “Lysine-insensitive maize dihydrodipicolinic acid synthase” (priority 1993, dated 1996)
